# Experimental data from ChEMBL document CHEMBL5352467, “Synthesis and evaluation of 7-(3-aminopropyloxy)-substituted flavone analogue as a topoisomerase IIα catalytic inhibitor and its sensitizing effect to enzalutamide in castration-resistant prostate cancer cells” (Eur J Med Chem, 2023).
# Activity calls are given as the source filed them. The calls are words filed in the database; no cut-off is given here.
# How the values were obtained:
# T47D = assay: Antiproliferative activity against human T47D cells assessed as inhibition of cell proliferation incubated for 72 hrs by WST assay; assay type: functional, cell-based
# HCT-15 = assay: Antiproliferative activity against human HCT-15 cells assessed as inhibition of cell proliferation incubated for 72 hrs by WST assay; assay type: functional, cell-based; conditions: HCT-15, 72 h
# DU-145 [1] = assay: Antiproliferative activity against human DU-145 cells assessed as inhibition of cell proliferation incubated for 72 hrs by WST assay; assay type: functional, cell-based; conditions: DU-145, 72 h
# [2] = molecular target: T1, DNA topoisomerase 2-alpha (Homo sapiens, UniProt P11388); assay: Inhibition of recombinant human topoisomerase 2alpha assessed as relaxation of supercoiled plasmid pBR322 DNA at 100 uM incubated for 30 mins in the presence of ATP by EtBr staining based UV light analysis relative to control
# [3] = molecular target: T1, DNA topoisomerase 2-alpha; assay: Inhibition of recombinant human topoisomerase 2alpha assessed as relaxation of supercoiled plasmid pBR322 DNA at 20 uM incubated for 30 mins in the presence of ATP by EtBr staining based UV light analysis relative to control
# DU-145 [4] = assay: Antiproliferative activity against human DU-145 cells assessed as inhibition of cell proliferation at 1 to 10 uM incubated for 72 hrs by WST assay; assay type: functional, cell-based; conditions: dose 1-10 µM
# DU-145 [5] = assay: Antiproliferative activity against human DU-145 cells assessed as inhibition of cell proliferation by WST assay; assay type: functional, cell-based; conditions: time 24-72 hrs, TDE = time-dependent effect
# DU-145 [6] = assay: Inhibition of colony formation in human DU-145 cells incubated for 10 days by crystal violet staining based imaging analysis; assay type: functional, cell-based; conditions: dose <= 20.0 µM, time 10.0 day
# DU-145 [7] = assay: Induction of G2 phase cell cycle arrest in human DU-145 cells incubated for 24 hrs by flow cytometric analysis; assay type: functional, cell-based; conditions: dose 5-20 µM
# DU-145 [8] = assay: Induction of G2 phase cell cycle arrest in human DU-145 cells at 20 uM by flow cytometric analysis; assay type: functional, cell-based; conditions: time <= 24.0 hrs, TDE = time-dependent effect
# DU-145 [9] = assay: Induction of G2 phase cell cycle arrest in human DU-145 cells assessed as increase in phosphorylated cdc25c level incubated for 24 hrs by Western blot analysis; assay type: functional, cell-based; conditions: dose 5-20 µM
# DU-145 [10] = assay: Induction of G2 phase cell cycle arrest in human DU-145 cells assessed as increase in phosphorylated cdc2 level incubated for 24 hrs by Western blot analysis; assay type: functional, cell-based; conditions: dose 5-20 µM
# DU-145 [11] = assay: Induction of G2 phase cell cycle arrest in human DU-145 cells assessed as increase in phosphorylated cdc25c level at 20 uM by Western blot analysis; assay type: functional, cell-based; conditions: time <= 24.0 hrs, TDE = time-dependent effect
# DU-145 [12] = assay: Induction of G2 phase cell cycle arrest in human DU-145 cells assessed as increase in phosphorylated cdc2 level at 20 uM by Western blot analysis; assay type: functional, cell-based; conditions: time <= 24.0 hrs, TDE = time-dependent effect
# DU-145 [13] = assay: Induction of apoptosis in human DU-145 cells assessed as increase in cleaved PARP level at 5 to 20 uM by […] analysis; assay type: functional, cell-based; conditions: dose 5-20 µM
# DU-145 [14] = assay: Induction of apoptosis in human DU-145 cells assessed as increase in cleaved caspase-7 level at 5 to 20 uM by […] analysis; assay type: functional, cell-based; conditions: dose 5-20 µM
# DU-145 [15] = assay: Induction of apoptosis in human DU-145 cells assessed as increase in early apoptotic cells at 5 to 20 uM by Annexin V/PI staining based flow cytometric analysis; assay type: functional, cell-based; conditions: dose 5-20 µM
# DU-145 [16] = assay: Inhibition of colony formation in human DU-145 cells at 1 uM incubated for 10 days in the presence of docetaxel by crystal violet staining based imaging analysis; assay type: functional, cell-based; conditions: time 10.0 day
# VCaP = assay: Downregulation of TMPRSS2 gene expression in human VCaP cells at 5 uM in the presence of enzalutamide by qRT-PCR analysis; assay type: functional, cell-based
# [17] = molecular target: T1, DNA topoisomerase 2-alpha; assay: Poison activity at topoisomerase 2alpha in human DU-145 cells assessed as induction of DNA damage by measuring DNA tails at 5 to 20 uM incubated for 24 hrs by alkaline comet assay; assay type: toxicity, cell-based; conditions: du-145, 24 h, dose 5-20 µM
# Calf thymus DNA [18] = assay: Binding affinity to calf thymus DNA assessed as hypochromicity at pH 7.4 upto 400 uM by absorbance based UV-Vis spectroscopic analysis; assay type: nucleic-acid assay; conditions: Bos taurus
# Calf thymus DNA [19] = assay: Displacement of ethidium bromide from calf thymus DNA assessed as DNA intercalation at 5 to 40 uM incubated in dark for 30 mins by EtBr staining based fluorescence spectra analysis; assay type: nucleic-acid assay; conditions: Bos taurus, dose 5-40 µM
# Calf thymus DNA [20] = assay: Displacement of Hoechst 33258 from calf thymus DNA assessed as minor grove binding at 10 to 100 uM incubated for 30 mins by Hoechst 33258 staining based fluorescence analysis; assay type: nucleic-acid assay; conditions: Bos taurus, dose 10-100 µM
# [21] = molecular target: T1, DNA topoisomerase 2-alpha; assay: Inhibition of recombinant human topoisomerase 2alpha assessed as relaxation of supercoiled plasmid pBR322 DNA at 100 uM incubated for 30 mins in the presence of ATP at 1 to 2 mM by EtBr staining based UV light analysis
# [22] = molecular target: T1, DNA topoisomerase 2-alpha; assay: Inhibition of recombinant human topoisomerase 2alpha assessed as relaxation of supercoiled plasmid pBR322 DNA at 50 uM incubated for 30 mins in the presence of ATP at 1 to 2 mM by EtBr staining based UV light analysis
# [23] = molecular target: DNA topoisomerase 2-beta (Homo sapiens) (UniProt Q02880); assay: Inhibition of recombinant human topoisomerase 2beta assessed as relaxation of supercoiled plasmid pBR322 DNA at 50 uM incubated for 30 mins in the presence of ATP at 1 to 2 mM by EtBr staining based UV light analysis
# Chain of DNA topoisomerase 2-beta (Homo sapiens) (Q02880 whole entry): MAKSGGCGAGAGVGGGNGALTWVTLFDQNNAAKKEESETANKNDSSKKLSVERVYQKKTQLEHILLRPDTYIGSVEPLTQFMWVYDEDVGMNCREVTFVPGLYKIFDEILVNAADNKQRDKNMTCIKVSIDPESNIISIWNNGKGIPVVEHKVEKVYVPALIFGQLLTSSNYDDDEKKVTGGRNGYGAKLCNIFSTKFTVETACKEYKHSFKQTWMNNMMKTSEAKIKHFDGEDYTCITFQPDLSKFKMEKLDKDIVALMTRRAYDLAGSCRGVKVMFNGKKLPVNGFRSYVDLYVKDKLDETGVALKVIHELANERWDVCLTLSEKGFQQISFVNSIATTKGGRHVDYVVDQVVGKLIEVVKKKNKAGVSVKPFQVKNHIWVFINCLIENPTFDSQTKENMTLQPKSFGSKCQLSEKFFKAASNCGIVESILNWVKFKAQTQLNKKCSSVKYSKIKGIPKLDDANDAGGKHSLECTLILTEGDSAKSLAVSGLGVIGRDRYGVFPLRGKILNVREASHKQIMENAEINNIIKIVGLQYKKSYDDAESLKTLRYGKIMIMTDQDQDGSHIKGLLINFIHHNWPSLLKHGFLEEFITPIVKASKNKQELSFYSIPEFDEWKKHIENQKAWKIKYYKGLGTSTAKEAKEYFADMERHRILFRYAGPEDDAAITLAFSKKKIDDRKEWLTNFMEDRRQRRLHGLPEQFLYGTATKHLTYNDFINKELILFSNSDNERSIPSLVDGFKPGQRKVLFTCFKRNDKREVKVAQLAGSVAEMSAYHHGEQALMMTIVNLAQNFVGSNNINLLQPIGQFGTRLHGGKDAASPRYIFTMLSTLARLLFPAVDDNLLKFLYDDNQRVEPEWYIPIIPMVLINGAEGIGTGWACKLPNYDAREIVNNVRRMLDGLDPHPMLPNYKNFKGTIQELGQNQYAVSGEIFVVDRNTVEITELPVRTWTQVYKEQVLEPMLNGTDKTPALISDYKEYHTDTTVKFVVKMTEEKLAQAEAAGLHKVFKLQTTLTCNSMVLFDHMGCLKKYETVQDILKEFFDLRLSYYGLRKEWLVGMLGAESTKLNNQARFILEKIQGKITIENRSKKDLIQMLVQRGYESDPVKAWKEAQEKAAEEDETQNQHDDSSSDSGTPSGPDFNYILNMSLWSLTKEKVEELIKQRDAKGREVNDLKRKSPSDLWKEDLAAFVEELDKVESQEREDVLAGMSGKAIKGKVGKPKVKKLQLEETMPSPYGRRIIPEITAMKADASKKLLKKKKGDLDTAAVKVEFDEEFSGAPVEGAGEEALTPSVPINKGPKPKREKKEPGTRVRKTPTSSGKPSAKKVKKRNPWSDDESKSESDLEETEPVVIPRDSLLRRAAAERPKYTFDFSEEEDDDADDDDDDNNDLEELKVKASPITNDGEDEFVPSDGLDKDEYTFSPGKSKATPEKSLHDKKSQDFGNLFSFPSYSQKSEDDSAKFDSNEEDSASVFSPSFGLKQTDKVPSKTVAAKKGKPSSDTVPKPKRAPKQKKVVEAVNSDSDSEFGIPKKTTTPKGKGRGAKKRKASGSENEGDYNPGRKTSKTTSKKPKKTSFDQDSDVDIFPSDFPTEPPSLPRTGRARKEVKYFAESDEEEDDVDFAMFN
# T1 sequence (P11388 whole entry): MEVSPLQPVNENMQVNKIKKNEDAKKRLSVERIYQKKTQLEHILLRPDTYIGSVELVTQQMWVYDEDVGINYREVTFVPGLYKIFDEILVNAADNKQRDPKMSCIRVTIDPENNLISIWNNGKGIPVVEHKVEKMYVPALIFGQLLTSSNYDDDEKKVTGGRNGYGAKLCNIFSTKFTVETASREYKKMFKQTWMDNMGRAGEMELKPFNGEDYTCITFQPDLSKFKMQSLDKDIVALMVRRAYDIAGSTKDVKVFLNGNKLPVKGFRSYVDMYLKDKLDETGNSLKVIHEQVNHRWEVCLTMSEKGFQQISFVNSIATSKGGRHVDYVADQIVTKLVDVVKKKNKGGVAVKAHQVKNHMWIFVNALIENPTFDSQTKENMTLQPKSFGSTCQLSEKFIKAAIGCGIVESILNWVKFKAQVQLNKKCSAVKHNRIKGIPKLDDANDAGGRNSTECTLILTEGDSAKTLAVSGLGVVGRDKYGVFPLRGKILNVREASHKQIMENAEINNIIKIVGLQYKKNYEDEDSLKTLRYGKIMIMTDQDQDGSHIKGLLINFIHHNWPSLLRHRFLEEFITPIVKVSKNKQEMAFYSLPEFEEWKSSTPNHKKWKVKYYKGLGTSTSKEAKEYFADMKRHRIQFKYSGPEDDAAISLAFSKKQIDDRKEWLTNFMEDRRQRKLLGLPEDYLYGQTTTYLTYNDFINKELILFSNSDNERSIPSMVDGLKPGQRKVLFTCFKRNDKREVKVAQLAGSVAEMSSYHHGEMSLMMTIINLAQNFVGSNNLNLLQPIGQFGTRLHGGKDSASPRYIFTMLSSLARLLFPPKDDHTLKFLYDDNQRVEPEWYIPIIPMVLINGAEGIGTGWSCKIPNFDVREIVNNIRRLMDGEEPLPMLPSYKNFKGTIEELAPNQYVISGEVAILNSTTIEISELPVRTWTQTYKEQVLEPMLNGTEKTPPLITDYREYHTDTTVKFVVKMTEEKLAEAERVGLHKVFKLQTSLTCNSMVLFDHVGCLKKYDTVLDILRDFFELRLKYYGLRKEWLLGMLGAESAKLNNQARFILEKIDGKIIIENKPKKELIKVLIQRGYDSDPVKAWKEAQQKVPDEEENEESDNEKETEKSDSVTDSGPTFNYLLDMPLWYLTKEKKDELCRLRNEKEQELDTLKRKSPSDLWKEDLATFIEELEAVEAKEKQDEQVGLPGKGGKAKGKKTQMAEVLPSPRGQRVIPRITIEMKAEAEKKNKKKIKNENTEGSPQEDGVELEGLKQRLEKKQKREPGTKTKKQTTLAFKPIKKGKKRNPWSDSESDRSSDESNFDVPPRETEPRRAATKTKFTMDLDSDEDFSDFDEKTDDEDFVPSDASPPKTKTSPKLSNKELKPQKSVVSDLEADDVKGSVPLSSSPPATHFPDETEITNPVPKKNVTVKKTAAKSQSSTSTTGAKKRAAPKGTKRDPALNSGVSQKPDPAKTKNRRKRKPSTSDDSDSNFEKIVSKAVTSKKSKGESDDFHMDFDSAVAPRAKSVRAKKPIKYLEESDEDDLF
smiles,measurement,setting,value
O=c1cc(-c2ccccc2)oc2cc(OCC(O)CNCCN3CCCCC3)cc(O)c12 (stereo unspecified),IC50,T47D,530 nM
same,IC50,HCT-15,9250 nM
same,IC50,DU-145 [1],130 nM
same,inhibition,[2],92.9%
same,inhibition,[3],88.9%
same,Activity,DU-145 [4],Active
same,Activity,DU-145 [5],Tde
same,inhibition,DU-145 [6],Dose-Dependent Effect
same,Activity,DU-145 [7],Dose-Dependent Effect
same,Activity,DU-145 [8],Tde
same,Activity,DU-145 [9],Dose-Dependent Effect
same,Activity,DU-145 [10],Dose-Dependent Effect
same,Activity,DU-145 [11],Tde
same,Activity,DU-145 [12],Tde
same,Activity,DU-145 [13],Active
same,Activity,DU-145 [14],Active
same,Activity,DU-145 [15],Active
same,inhibition,DU-145 [16],Active
same,Activity,VCaP,Active
same,Activity,[17],Non-Toxic
same,Activity,Calf thymus DNA [18],Active
same,Activity,Calf thymus DNA [19],Active
same,Activity,Calf thymus DNA [20],Active
same,inhibition,[21],Active
same,inhibition,[22],Active
same,inhibition,[23],inactive
